These results are taken from patent US4159328A, “Tetrahydro-1,3,5-thiadiazin-4-one derivative” (Nihon Nohyaku Co., Ltd., priority 1977, dated 1979).

What all share (assay type): in vivo
Data set [1] deals with cirrus red mite (Panonychus citri McGregor). In words: Test Example 4: activity to citrus red mite (Rothamstead method). As to conditions: two days after treatment, 25° C.; 2880 min. Details: concentration or dose not given beside the values. The procedure: Activity to cirrus red mite (Panonychus citri McGregor).
Testing method: The test was performed by Rothamstead method. A test composition was sprayed by means of a spray gun over grapefruit leaves infested with citrus red mites. After air-drying the grapefruit was left standing in a constant temperature cabinet at 25° C. Two days after the treatment, the number of survived mites was counted to calculate the mortality.

Data set [2] deals with larvae of bug. (Togo hemipterus Scott). In words: Test Example 9: insecticidal activity against larvae of bug. As to conditions: 120 h, 10 ppm, first-instar larvae, 25° C., five days, read-out: Mortality. The procedure:
Insecticidal activity against larvae of bug. (Togo hemipterus Scott).
Test method: Into a glass tube (1.6 cm in internal diameter and 9 cm in length), was added 1 ml of a test composition in 10 ppm concentration just to moisten the absorbent cotton. Five rice seeds and five first-instar larvae were introduced into the glass tube and the tube end was covered with a piece of Japanese paper. The glass tube was kept in a constant temperature cabinet at 25° C. Five days after treatment, the dead-and-survival was inspected to calculate the mortality (3-replication test).

The subject of data set [3] is larvae of brown planthopper (Nilaparvata lugens Stahl). In words: Test Example 1: insecticidal activity against larvae of brown planthopper. As to conditions: 120 h, third-instar larvae, 25° C., 5 days after treatment. The method in brief: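 Rice seedlings at 1.5-leaf stage were dipped for 30 s in a 400 ppm test composition, air-dried, and infested with third-instar N. lugens larvae. After holding at 25 °C, mortality was scored 5 or 7 days post-treatment from three replicates.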

Data set [4] concerns larvae of green rice leafhopper (Nephotettix cincticeps Uhler). As to the kind of experiment: Test Example 5: activity against larvae of green rice leafhopper. The settings on record: 168 h, 400 ppm, second-instar larvae, 25° C., seven days after treatment, read-out: Mortality. A digest of the protocol: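 Rice seedlings at 1.5 leaf age dipped 30 seconds in 400 ppm test composition, air-dried, then infested with five second-instar larvae. Kept at 25° C; mortality scored seven days after treatment, three replicates.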

The test system of data set [5] is larvae of house mosquito (Culex pipiens pallens Coquillett). As to the kind of experiment: Test Example 6: insecticidal activity to larvae of house mosquito. As to conditions: 120 h. A digest of the protocol: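 Twenty first-instar Culex pipiens pallens larvae placed with feed in test composition diluted in deionized water to 10 ppm. Kept at 25 °C, and mortality counted five days after treatment.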

Data set [6] has as its system larvae of 28-spotted lady beetle (Epilachna vigintioctopunctana Fabricius). As to the kind of experiment: Test Example 8: insecticidal activity against larvae of 28-spotted lady beetle. As to conditions: 120 h. The method in brief: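 Tomato leaflets dipped 30 s in 100 ppm test composition, air-dried, and placed in Petri dishes with seven second-instar larvae at 25° C. Mortality scored five days after treatment, two replicates.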

Data set [7] relates to larvae of white-backed planthopper (Sogatella furcifera Horvath). As to the kind of experiment: Test Example 2: insecticidal activity against larvae of white-backed planthopper. The settings on record: 168 h, 400 ppm, first-instar larvae, 25° C., seven days after treatment, read-out: Mortality. A digest of the protocol:
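Rice seedlings at 1.5-leaf stage were dipped 30 s in 400 ppm test composition, air-dried, and infested with five first-instar larvae. Tubes were held at 25°C, and mortality was scored at 7 days from triplicate tests.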

For data set [8], the system named is larvae of diamond-back moth (Plutilla xylostella Linn'e). As to the kind of experiment: Test Example 10: insecticidal activity against larvae of diamond-back moth. The settings on record: 400 ppm, first-instar larvae, three days; 4320 min. The text has this:
Insecticidal activity against larvae of diamond-back moth (Plutilla xylostella Linn'e). Testing method: A test composition of 400 ppm concentration was sprayed over the pot-planted chinese cabbage in a greenhouse by means of a spray gun. After air-drying, the chinese cabbage was infested with 10 first-instar larvae of diamond-back moth and was left standing in the greenhouse. Three days after the treatment, the dead-and-survival was inspected to calculate the mortality (3-replication test).

Read-outs that look alike come from different tables or passages of the source.

In the case of `CC(C)N=C1SCN(c2ccccc2)C(=O)N1C` [Compound 118, 2-Isopropylimino-3-methyl-5-phenyl-tetrahydro-1,3,5-thiadiazin-4-one], in data set [1], the Mortality is reported as 100%. Further, in data set [2], the mortality at 10 ppm turned out to be 100%.

As to `CCN1C(=O)N(c2ccccc2)CSC1=NC(C)(C)C` [Compound 131, 2-t-Butylimino-3-ethyl-5-phenyl-tetrahydro-1,3,5-thiadiazin-4-one], the mortality at 400 ppm in data set [3] and in data set [4] was 100% throughout. This molecule had a Mortality in data set [1] of 100%. For the same molecule, the mortality at 10 ppm in data set [5] and in data set [2] was 100% in each case. In data set [6], the mortality at 100 ppm turned out to be 100%.

Regarding `CCCN1C(=O)N(c2ccccc2)CSC1=NC(C)C` [Compound 135], the mortality at 400 ppm in data set [3] was 100%. Also, the Mortality in data set [1] is 100%. In addition, the mortality at 10 ppm in data set [5] and in data set [2] was 100% each time. The molecule further returned a mortality at 100 ppm in data set [6] of 100%.

Molecule `CCCN1C(=O)N(c2ccccc2)CSC1=NC(C)(C)C` [Compound 137] had a mortality at 400 ppm in data set [3] of 80%. The mortality at 10 ppm turned out to be 100% in data set [5] and 50% in data set [2]. In data set [6], the mortality at 100 ppm turned out to be 50%.

In turn, `C=CCN=C1SCN(c2ccccc2)C(=O)N1CC=C` [Compound 139] registered a mortality at 400 ppm in data set [3] of 100%. Also, the mortality at 10 ppm in data set [5] and in data set [2] was 100% in each case. This molecule yielded a mortality at 100 ppm in data set [6] of 100%.

Take `C=CCN1C(=O)N(c2ccccc2)CSC1=NCCC` [Compound 140]: the mortality at 400 ppm in data set [3] and in data set [4] was 100% throughout. The figures for the mortality at 10 ppm in data set [5] and in data set [2] were 100% and 50%, respectively. The molecule also yielded a mortality at 100 ppm in data set [6] of 50%.

Take `C=CCN1C(=O)N(c2ccccc2)CSC1=NC(C)C` [Compound 141]: the mortality at 400 ppm in data set [3] and in data set [4] was 100% each time. Moreover, the values for the mortality at 10 ppm in data set [5] and in data set [2] were 100% and 80%, respectively. The mortality at 100 ppm in data set [6] is 100%.

Turning to `C=CCN1C(=O)N(c2ccccc2)CSC1=NC(C)CC` (stereo not drawn) [Compound 142], the mortality at 400 ppm in data set [3] and in data set [4] was 100% each time. Besides, the mortality at 10 ppm in data set [5] and in data set [2] was 100% throughout. Besides, in data set [6], the mortality at 100 ppm came out at 100%.

For the molecule `C=CCN1C(=O)N(c2ccccc2)CSC1=NC(C)(C)C` [Compound 143], the mortality at 400 ppm in data set [4] came out at 100%. In addition, the mortality at 10 ppm in data set [5] was 80%; in data set [2] it was 100%. In addition, in data set [6], the mortality at 100 ppm amounted to 100%.

With `CC(C)N=C1SCN(c2ccccc2)C(=O)N1C(C)C` [Compound 144, 2-Isopropylimino-3-isopropyl-5-phenyltetrahydro-1,3,5-thiadiazin-4-one], the mortality at 400 ppm in data set [7] and in data set [4] was 100% in each case. For the same molecule, the mortality at 10 ppm in data set [5] and in data set [2] was 100% throughout. In data set [6], the mortality at 100 ppm is 100%.

As for `CC(C)CN1C(=O)N(c2ccccc2)CSC1=NC(C)C` [Compound 149, 2-Isopropylimino-3-isobutyl-5-phenyl-tetrahydro-1,3,5-thiadiazin-4-one], the mortality at 400 ppm in data set [3] came to 100%. The mortality at 10 ppm is 100% in data set [5] and 50% in data set [2]. The mortality at 100 ppm in data set [6] is 100%.

`CC(C)CN1C(=O)N(c2ccccc2)CSC1=NC(C)(C)C` [Compound 150]: the mortality at 400 ppm in data set [3] came to 100%; in data set [4], 90%. Further, the mortality at 10 ppm was determined as 100% in data set [5] and 50% in data set [2]. This molecule returned a mortality at 100 ppm in data set [6] of 80%.

For the molecule `CCC(C)N=C1SCN(c2ccccc2)C(=O)N1C(C)CC` (stereo not drawn) [Compound 151], the mortality at 400 ppm in data set [3] and in data set [4] was 100% in each case. For the same molecule, the mortality at 10 ppm in data set [5] is 100%; in data set [2], 80%. The molecule further showed a mortality at 100 ppm in data set [6] of 100%.

In the case of `CCC(C)N1C(=O)N(c2ccccc2)CSC1=NC(C)(C)C` (stereo not drawn) [Compound 152], the mortality at 400 ppm in data set [3], in data set [7] and in data set [4] was 100% in each case. Besides, the mortality at 10 ppm in data set [5] and in data set [2] was 100% each time. For the same molecule, in data set [6], the mortality at 100 ppm was 100%.

In data set [3], `CC(C)(C)N=C1SCN(c2ccccc2)C(=O)N1C1CCCCC1` [Compound 155, 2-t-Butylimino-3-cyclohexyl-5-phenyl-tetrahydro-1,3,5-thiadiazin-4-one] came in with a mortality at 400 ppm of 50%. In addition, the mortality at 10 ppm in data set [5] and in data set [2] was 100% in each case. In data set [6], the mortality at 100 ppm turned out to be 100%.

For the molecule `CC(C)N1C(=O)N(c2ccccc2)CSC1=NC(C)(C)CC(C)(C)C` [Compound 156], the mortality at 400 ppm in data set [3] and in data set [4] was 100% each time. In addition, the mortality at 10 ppm in data set [5] was determined as 100%; in data set [2] it was 50%. The mortality at 100 ppm in data set [6] was determined as 90%.

Take `CCC(C)N1C(=O)N(c2ccccc2)CSC1=NC(C)(C)CC(C)(C)C` (stereo not drawn) [Compound 157]: in data set [3], the mortality at 400 ppm was found to be 100%. Besides, the mortality at 10 ppm in data set [5] and in data set [2] was 100% throughout. For the same molecule, in data set [6], the mortality at 100 ppm stood at 100%.

`CCN=C1SCN(c2ccccc2)C(=O)N1c1ccccc1` [Compound 162]: the mortality at 400 ppm in data set [3] was determined as 100%. In addition, the mortality at 10 ppm came out at 100% in data set [5] and 50% in data set [2]. Also, the mortality at 100 ppm in data set [6] (100 ppm, second-instar larvae, 25° C., five days, read-out: Mortality) was determined as 50%.

The molecule `COCCN1C(=O)N(c2ccc(Cl)cc2)CSC1=NC(C)C` [Compound 207] had a Mortality in data set [8] of 100%.

With `CC(C)(C)N=C1SCN(c2ccc(Cl)cc2)C(=O)N1C1CCCCC1` [Compound 208], the Mortality in data set [8] stood at 80%.

Regarding `CC(C)N1C(=O)N(c2cccc(Cl)c2)CSC1=NC1CCCCC1` [Compound 230], the Mortality in data set [8] turned out to be 100%.

In data set [3], `CCCN1C(=O)N(c2cccc(Cl)c2)CSC1=NC(C)(C)C` [Compound 232] came in with a mortality at 400 ppm of 70%. For the same molecule, the Mortality in data set [8] turned out to be 70%.

As to `CCCCN1C(=O)N(c2cccc(Cl)c2)CSC1=NC(C)(C)C` [Compound 236], in data set [3], the mortality at 400 ppm worked out at 80%. The Mortality in data set [8] was 100%.

Regarding `CCN=C1SCN(c2cccc(C)c2)C(=O)N1CC` [Compound 324], in data set [3], the mortality at 400 ppm is 100%. In data set [8], this molecule gave a Mortality of 100%.

For `Cc1cccc(N2CSC(=NC(C)(C)C)N(C(C)C)C2=O)c1` [Compound 326], the mortality at 400 ppm in data set [3], in data set [7] and in data set [4] was 100% each time. For the same molecule, the mortality at 10 ppm in data set [5] was found to be 100%. In data set [6], this molecule had a mortality at 100 ppm of 100%. Further, the Mortality in data set [8] was found to be 100%.

`Cc1cccc(N2CSC(=NC(C)C)N(Cc3ccccc3)C2=O)c1` [Compound 329] yielded a Mortality in data set [8] of 100%.

On to `CCc1ccc(N2CSC(=NC)N(C)C2=O)cc1` [Compound 331, 2-methylimino-3-methyl-5-(p-ethylphenyl)-tetrahydro-1,3,5-thiadiazin-4-one], for which the Mortality in data set [8] worked out at 100%.

Consider `CCc1ccc(N2CSC(=NC(C)(C)C)N(C(C)C)C2=O)cc1` [Compound 333, 2-t-butylimino-3-isopropyl-5-(p-ethylphenyl)-tetrahydro-1,3,5-thiadiazin-4-one], for which the mortality at 400 ppm in data set [3], in data set [7] and in data set [4] was 100% in each case. The mortality at 10 ppm in data set [5] came out at 100%. The Mortality in data set [8] was determined as 100%.

Turning to `CC(C)N=C1SCN(c2ccc([N+](=O)[O-])cc2[N+](=O)[O-])C(=O)N1C(C)C` [Compound 366], in data set [8], the Mortality is given as 100%.

By mortality is commonly meant the percentage killed.
